{"source": "paper PMC4678037", "about": "(Neuropharmacology, 2015)", "key": {"CB1R [1]": {"system": "CB1R", "test": "PET CB1R occupancy with [11C]SD5024 in striatum"}, "mCB1R": {"biological_target": "mCB1R (Mus musculus, UniProt P47746)", "sequence (P47746 whole entry)": "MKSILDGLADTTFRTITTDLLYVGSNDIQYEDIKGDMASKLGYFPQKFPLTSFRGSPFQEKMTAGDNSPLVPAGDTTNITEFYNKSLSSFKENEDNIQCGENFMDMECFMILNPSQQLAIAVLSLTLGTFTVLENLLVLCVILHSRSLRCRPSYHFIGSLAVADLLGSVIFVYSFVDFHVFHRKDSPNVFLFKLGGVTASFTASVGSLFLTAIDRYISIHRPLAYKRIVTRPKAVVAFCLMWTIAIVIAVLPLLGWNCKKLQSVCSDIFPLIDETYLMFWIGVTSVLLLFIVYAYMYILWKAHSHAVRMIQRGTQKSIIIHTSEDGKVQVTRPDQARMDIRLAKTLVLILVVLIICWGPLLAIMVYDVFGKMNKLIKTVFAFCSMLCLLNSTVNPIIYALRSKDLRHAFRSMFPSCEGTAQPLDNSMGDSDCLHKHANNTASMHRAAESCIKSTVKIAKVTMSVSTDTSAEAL", "format": "biochemical"}, "CB1R [2]": {"system": "CB1R", "test": "Change in [11C]SD5024 binding in pons after CB1R antagonists", "format": "in vivo, cynomolgus monkeys (Macaca fascicularis)"}, "body weight [3]": {"system": "body weight", "test": "Body weight loss in mice on ad lib. 'cafeteria' diet, 3 wks repeated p.o.", "format": "in vivo, mouse", "conditions": "approximate, vehicle-corrected, AZ data on file"}, "hCB1R": {"biological_target": "hCB1R (Homo sapiens, UniProt P21554)", "sequence (P21554 whole entry)": "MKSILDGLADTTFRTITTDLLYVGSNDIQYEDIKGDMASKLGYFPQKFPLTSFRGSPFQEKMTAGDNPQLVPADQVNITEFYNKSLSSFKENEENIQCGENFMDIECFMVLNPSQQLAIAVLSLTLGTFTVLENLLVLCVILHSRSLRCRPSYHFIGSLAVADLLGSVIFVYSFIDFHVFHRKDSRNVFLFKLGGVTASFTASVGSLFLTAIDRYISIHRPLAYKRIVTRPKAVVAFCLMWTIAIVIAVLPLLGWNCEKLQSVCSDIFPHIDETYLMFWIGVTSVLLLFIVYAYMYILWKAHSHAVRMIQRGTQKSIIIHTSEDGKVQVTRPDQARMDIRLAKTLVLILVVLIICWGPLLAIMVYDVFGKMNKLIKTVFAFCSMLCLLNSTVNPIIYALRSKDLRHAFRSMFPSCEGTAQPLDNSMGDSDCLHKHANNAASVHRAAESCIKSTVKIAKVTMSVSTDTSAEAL", "format": "biochemical"}, "[4]": {"test": "Whole brain uptake of radioligand", "format": "in vivo, cynomolgus monkeys (Macaca fascicularis)", "conditions": "i.v. bolus of radioligand, 42 PET measurements"}, "CB1R [5]": {"system": "CB1R", "conditions": "binding to CB1R; ref Donohue et al., 2008a,b; cited from earlier work"}, "[6]": {"conditions": "cited from earlier work"}, "CB1R [7]": {"system": "CB1R", "conditions": "across species, ref Fong et al., 2007, Burns et al., Addy et al., 2008a, Proietto et al., 2010, Aronne et al., Hadcock et al.; cited from earlier work"}, "[8]": {"system": "body weight / suicidality", "conditions": "ref FDA, 2007, cited from earlier work"}, "body weight [9]": {"system": "body weight", "test": "10-day Phase I Multiple Ascending Dose", "format": "in vivo, human", "conditions": "10-day Phase I MAD; doses giving plasma concentrations comparable to ~20–30% brain CB1R occupancy; AZ data on file"}}, "note": "Like-named read-outs stand apart in the source and are kept apart here. Marks after values point to notes of the source that are not given here.", "data": [{"smiles": "Cc1c2c(n(-c3ccc(F)cc3Cl)c1-c1ccc(OS(=O)(=O)CCC(F)(F)F)cc1)CCN(N1CCCCC1)C2=O", "note": "[AZ compound 3, 4-[1-(2-Chloro-4-fluorophenyl)-3-methyl-4-oxo-5-piperidin-1-yl-4,5,6,7-tetrahydro-1H-pyrrolo[3,2-c]pyridin-2-yl]phenyl 3,3,3-trifluoropropane-1-sulfonate]", "values": [{"measurement": "Receptor Occupancy", "setting": "CB1R [1]; striatum, 0.02 mg/kg i.v., monkey 4, plasma 0.001 μmol/L, 50–122 min", "value": "−18", "unit": "%"}, {"measurement": "Receptor Occupancy", "setting": "CB1R [1]; striatum, 0.06 mg/kg i.v., monkey 3, plasma […], 50–122 min", "value": 0.7, "unit": "%"}, {"measurement": "Receptor Occupancy", "setting": "CB1R [1]; striatum, 0.06 mg/kg i.v., monkey 4, plasma 0.020 μmol/L, 50–122 min", "value": "−12", "unit": "%"}, {"measurement": "Receptor Occupancy", "setting": "CB1R [1]; striatum, 0.2 mg/kg i.v., monkey 4, plasma 0.084 μmol/L, 50–122 min", "value": 14, "unit": "%"}, {"measurement": "Receptor Occupancy", "setting": "CB1R [1]; striatum, 0.4 mg/kg i.v., monkey 3, plasma 0.245 μmol/L, 50–122 min", "value": 59, "unit": "%"}, {"measurement": "Receptor Occupancy", "setting": "CB1R [1]; striatum, 0.6 mg/kg i.v., monkey 4, plasma 0.275 μmol/L, 50–122 min", "value": 82, "unit": "%"}, {"measurement": "Ki", "setting": "mCB1R", "value": "30 ± 2", "unit": "pM"}, {"measurement": "AUC50–122min difference compared to baseline", "setting": "CB1R [2]; 0.6 mg/kg (highest dose)", "value": "−23", "unit": "%"}, {"measurement": "Maximal in vivo body weight loss (% of baseline)", "setting": "body weight [3]", "value": "~30% of baseline"}, {"measurement": "Ki", "setting": "hCB1R", "value": "240 ± 10", "unit": "pM"}]}, {"smiles": "N#Cc1ccc(S(=O)(=O)N=C(N)N2CC(c3ccccc3)C(c3ccc(Cl)cc3)=N2)cc1", "note": "(stereo not drawn) [[^11C]SD5024]", "values": [{"measurement": "Peak radioactivity in brain (range)", "setting": "[4]", "value": "2.6 to 4.2", "unit": "% ID"}, {"measurement": "IC50", "setting": "CB1R [5]", "value": 2800, "unit": "pM"}, {"measurement": "Ki", "setting": "CB1R [5]", "value": 500, "unit": "pM"}]}, {"smiles": "Cc1c2c(n(-c3ccc(Cl)cc3Cl)c1-c1ccc(OS(=O)(=O)CCC(F)(F)F)cc1)CCN(N1CCCCC1)C2=O", "note": "[AZ compound 2, 4-[1-(2,4-Dichlorophenyl)-3-methyl-4-oxo-5-piperidin-1-yl-4,5,6,7-tetrahydro-1H-pyrrolo[3,2-c]pyridin-2-yl]phenyl 3,3,3-trifluoropropane-1-sulfonate]", "values": [{"measurement": "Receptor Occupancy", "setting": "CB1R [1]; striatum, 0.06 mg/kg i.v., monkey 2, plasma 0.023 μmol/L, 50–122 min", "value": 0.6, "unit": "%"}, {"measurement": "Receptor Occupancy", "setting": "CB1R [1]; striatum, 0.2 mg/kg i.v., monkey 1, plasma 0.050 μmol/L, 50–122 min", "value": "−10", "unit": "%"}, {"measurement": "Receptor Occupancy", "setting": "CB1R [1]; striatum, 0.2 mg/kg i.v., monkey 4, plasma 0.057 μmol/L, 50–122 min", "value": 9.2, "unit": "%"}, {"measurement": "Receptor Occupancy", "setting": "CB1R [1]; striatum, 0.25 mg/kg i.v., monkey 5, plasma 0.083 μmol/L, 50–122 min", "value": 1.4, "unit": "%"}, {"measurement": "Receptor Occupancy", "setting": "CB1R [1]; striatum, 0.3 mg/kg i.v., monkey 2, plasma 0.143 μmol/L, 50–122 min", "value": 35, "unit": "%"}, {"measurement": "Receptor Occupancy", "setting": "CB1R [1]; striatum, 0.6 mg/kg i.v., monkey 5, plasma 0.252 μmol/L, 50–122 min", "value": 64, "unit": "%"}, {"measurement": "Receptor Occupancy", "setting": "CB1R [1]; striatum, 1.0 mg/kg i.v., monkey 4, plasma 0.401 μmol/L, 50–122 min", "value": 69, "unit": "%"}, {"measurement": "Receptor Occupancy", "setting": "CB1R [1]; striatum, 2.0 mg/kg i.v., monkey 1, plasma […], 50–122 min", "value": 78, "unit": "%"}, {"measurement": "Ki", "setting": "mCB1R", "value": "20 ± 1", "unit": "pM"}, {"measurement": "AUC50–122min difference compared to baseline", "setting": "CB1R [2]; 2.0 mg/kg (highest dose)", "value": "−23", "unit": "%"}, {"measurement": "Maximal in vivo body weight loss (% of baseline)", "setting": "body weight [3]", "value": "~30% of baseline"}, {"measurement": "Ki", "setting": "hCB1R", "value": "200 ± 10", "unit": "pM"}]}, {"smiles": "C[C@H](NC(=O)C(C)(C)Oc1ccc(C(F)(F)F)cn1)[C@@H](Cc1ccc(Cl)cc1)c1cccc(C#N)c1", "note": "[Taranabant, N-[(2S,3S)-4-(4-Chlorophenyl)-3-(3-cyanophenyl)-2-butanyl]-2-methyl-2-{[5-(trifluoromethyl)-2-pyridinyl]oxy}propanamide, reference compound]", "values": [{"measurement": "Protein bound", "setting": "[6]; ref Li et al., 2010", "value": "> 98", "unit": "%"}, {"measurement": "CB1R occupancy at exposures corresponding to those needed for optimal clinical efficacy", "setting": "CB1R [1]; non-human primates, typically around", "value": "20–30%"}, {"measurement": "Receptor Occupancy", "setting": "CB1R [1]; striatum, 0.005 mg/kg i.v., monkey 7, plasma 0.002 μmol/L, 50–122 min", "value": 1.7, "unit": "%"}, {"measurement": "Receptor Occupancy", "setting": "CB1R [1]; striatum, 0.015 mg/kg i.v., monkey 7, plasma 0.010 μmol/L, 50–122 min", "value": "−3.9", "unit": "%"}, {"measurement": "Receptor Occupancy", "setting": "CB1R [1]; striatum, 0.05 mg/kg i.v., monkey 1, plasma 0.015 μmol/L, 50–122 min", "value": 35, "unit": "%"}, {"measurement": "Receptor Occupancy", "setting": "CB1R [1]; striatum, 0.2 mg/kg i.v., monkey 1, plasma 0.093 μmol/L, 50–122 min", "value": 94, "unit": "%"}, {"measurement": "Plasma concentration corresponding to 20–30% CB1R occupancy", "setting": "CB1R [1]; striatum, present study", "value": "0.01 to 0.02", "unit": "µmol/L"}, {"measurement": "Ki", "setting": "mCB1R", "value": "10 ± 1", "unit": "pM"}, {"measurement": "AUC50–122min difference compared to baseline", "setting": "CB1R [2]; 0.2 mg/kg (highest dose)", "value": "−29", "unit": "%"}, {"measurement": "Maximal in vivo body weight loss (% of baseline)", "setting": "body weight [3]", "value": "~30% of baseline"}, {"measurement": "CB1R occupancy that may be sufficient for appetite- and body weight-reducing efficacy", "setting": "CB1R [7]", "value": "10 to 40", "unit": "%"}]}, {"smiles": "Cc1c(C(=O)NN2CCCCC2)nn(-c2ccc(Cl)cc2Cl)c1-c1ccc(Cl)cc1", "note": "[Rimonabant, 5-(4-Chlorophenyl)-1-(2,4-dichloro-phenyl)-4-methyl-N-(piperidin-1-yl)-1H-pyrazole-3-carboxamide]", "values": [{"measurement": "Protein bound", "setting": "[6]; ref FDA, 2007", "value": "> 99.9", "unit": "%"}, {"measurement": "Maximal in vivo body weight loss (% of baseline)", "setting": "body weight [3]", "value": "~20% of baseline"}, {"measurement": "Suicidality in the clinic", "setting": "[8]; 5 mg dose vs. selected 20 mg dose", "value": "absence of a detectable rise in suicidality"}, {"measurement": "Weight loss in the clinic", "setting": "[8]; 5 mg dose", "value": "significant (albeit modest) weight loss"}]}, {"smiles": "Cc1c(C(=O)NN2CCCCC2)nc(-c2ccc(Cl)cc2Cl)n1-c1ccc(OS(=O)(=O)CCC(F)(F)F)cc1", "note": "[AZ compound 1, 4-[2-(2,4-Dichlorophenyl)-5-methyl-4-(piperidin-1-ylcarbamoyl)-1H-imidazol-1-yl]phenyl 3,3,3-trifluoropropane-1-sulfonate]", "values": [{"measurement": "Effect on body weight", "setting": "body weight [9]", "value": "tended to reduce body weight"}, {"measurement": "Receptor Occupancy", "setting": "CB1R [1]; striatum, 0.03 mg/kg i.v., monkey 1, plasma 0 μmol/L, data for 50–93 min", "value": "0.4 ^* %"}, {"measurement": "Receptor Occupancy", "setting": "CB1R [1]; striatum, 0.3 mg/kg i.v., monkey 1, plasma 0.038 μmol/L, 50–122 min", "value": 35, "unit": "%"}, {"measurement": "Receptor Occupancy", "setting": "CB1R [1]; striatum, 0.3 mg/kg i.v., monkey 2, plasma 0.055 μmol/L, data for 50–93 min", "value": "23 ^* %"}, {"measurement": "Receptor Occupancy", "setting": "CB1R [1]; striatum, 1.0 mg/kg i.v., monkey 2, plasma 0.154 μmol/L, 50–122 min", "value": 73, "unit": "%"}, {"measurement": "Receptor Occupancy", "setting": "CB1R [1]; striatum, 2.0 mg/kg i.v., monkey 3, plasma 0.999 μmol/L, 50–122 min", "value": 88, "unit": "%"}, {"measurement": "Receptor Occupancy", "setting": "CB1R [1]; striatum, 6.0 mg/kg i.v., monkey 3, plasma 2.220 μmol/L, 50–122 min", "value": 99, "unit": "%"}, {"measurement": "Ki", "setting": "mCB1R", "value": "30 ± 2", "unit": "pM"}, {"measurement": "AUC50–122min difference compared to baseline", "setting": "CB1R [2]; 6.0 mg/kg (highest dose)", "value": "−20", "unit": "%"}, {"measurement": "Maximal in vivo body weight loss (% of baseline)", "setting": "body weight [3]", "value": "~23–25% of baseline"}, {"measurement": "Ki", "setting": "hCB1R", "value": "190 ± 10", "unit": "pM"}]}]}
